Results on 1 compound are retold here after patent publication US9738902B2, “Modified PYR/PYL receptors activated by ligands” (priority 2013, dated 2017).

The structures appear in SMILES notation.

One test deals with T1, PYR1 K59R F108Q S122G (Arabidopsis thaliana, UniProt O49686, F108Q/K59R/S122G).
T1 construct: expressed in transfected cells; host or cells: S. cerevisiae Y190 two-hybrid reporter strain
Put plainly: Y2H Combinatorial Mutagenesis Screen I (HAB1, X-gal). In kind it is cell-based.

A further test has as its target T2, PYR1 K59R F108I S122G (Arabidopsis thaliana, UniProt O49686, F108I/K59R/S122G).
T2 construct: expressed in transfected cells; host or cells: S. cerevisiae Y190 two-hybrid reporter strain
The description is as above. In kind it is cell-based.

In test [1] the test system is PYR1 Y58H K59R V81I F108A F159L. As to the kind of experiment: Y2H Combinatorial Mutagenesis II (HAB1, X-gal). In kind it is cell-based, Arabidopsis. From the text: Both of the above optimization experiments led to the identification of the following mutations that, when introduced one at a time, enhance the mandipropamid sensitivity of PYR1^K59R,F108A,S122G: Y58H, V81C, V81I, V81T, V83L, L87A, F159L, F159M, F159V, A160V and V164I. Given that these each enhance sensitivity on their own, we tested if combinations of these mutations might generate more sensitive receptors. Mutagenic primers for each of the mutations were designed and used simultaneously with the QuickChange Lightning Multi Site-Directed Mutagenesis kit (Agilent, USA) with PYR1^K59R,F108A,S122G template DNA. Individual clones were sequenced to identify bona fide combination mutants, which were transformed into the Y190 pACT-HAB1 yeast strain and assayed for mandipropamid sensitivity. These efforts led to the identification of several improved receptors (“Combinatorial Mutagenesis Screen II”, Table 1), including PYR1^Y58H,K59R,V81I,F108A,S122G,F159L, a hextuple mutant that we have named PYR1^MANDI. Yeast reporter strains expressing this mutant are responsive to mandipropamid concentrations as low as 2 nM (Table 1). Thus, the 5-step mutagenesis protocol we followed led to the construction of a mandipropamid responsive receptor with nanomolar sensitivity.

The next test has as its target T3, PYR1 K59R F108A S122G (Arabidopsis thaliana, UniProt O49686, F108A/K59R/S122G).
T3 construct: expressed in transfected cells; host or cells: S. cerevisiae Y190 two-hybrid reporter strain
As to the kind of experiment: Y2H Combinatorial Mutagenesis Screen I (HAB1, X-gal). In kind it is cell-based. From the text: This screening approach yielded mutants at ligand contacting residues that alter sensitivity to specific ligands. We reasoned that receptor sensitivity could be improved by systematically constructing combinations of the best mutant variants identified in the first round of screening. To test this, we constructed mutant combinations using the strongest mutations identified for mandipropamid, benzothiadiazole, benoxacor or fludioxonil sensitivity. The mutations selected for combinatorial mutagenesis are listed in bold type in Table 1; The mutant combinations were constructed using the QuickChange Lightning Multi Site-Directed PCR Mutagenesis kit (Agilent, USA) using pBD-PYR1^K59R template DNA and mutagenic primers, essentially as previously described (Mosquna et al., 2011). The mutant combinations were sequence validated, introduced into the pACT-HAB1 Y190 reporter strain and then tested for responsiveness to a range of compound concentrations (100, 50, 25, 10, 1, 0.2, 0.1 or 0 μM each test compound). These efforts yielded double mutant receptor variants with improved sensitivity for the 4 compound/receptor pairs examined (see entries labeled “Combinatorial Mutagenesis Screen I” in Table 1).
The preceding efforts identified PYR1^K59R,F108A,S122G, which is responsive to mandipropamid concentrations as low as 1 μM. […]

Test [2] deals with 35S::PYR1^MANDI transgenic seeds. Put plainly: seed germination on mandipropamid medium. In kind it is in vivo, Arabidopsis. Particulars: 1 μM mandipropamid. The source says:
(§1) We generated a series of transgenic plants expressing PYR1^MANDI under the control of either the cauliflower mosaic virus 35S or Arabidopsis Rubisco small subunit 3B promoters (RBCS). These were generated for the purpose of examining the physiological efficacy of the PYR1^MANDI-mandipropamid system for regulating ABA responses in planta. The PYR1^MANDI coding sequence was PCR amplified from pBD-PYR1^MANDI template and cloned into the plant transformation vector pEGAD under control of the 35S promoter. For the RBCS driven construct, the 35S promoter in pEGAD was replaced with the RBCS promoter, which was amplified from Arabidopsis genomic DNA by PCR; the pEGAD vector contains a glufosinate resistance gene and allows selection of transgenics in soil using commercially available formulations of glufosinate. These two constructs, p35S::PYR1^MANDI and pRBCS::PYR1^MANDI, were introduced into Agrobacterium tumefacians GV3101 and then used to transform Arabidopsis using the floral dip method (Clough and Bent, 1998) and the resultant seed germinated in soil and treated with glufosinate to identify transformed plants. Seed from approximately 15-16 transgenic plants were harvested individually and then characterized. It is well known that ABA inhibits seed germination. […]

Test [3] has as its system RBCS::PYR1^MANDI transgenic seeds. As to the kind of experiment: seed germination on mandipropamid medium. Particulars: 1 μM mandipropamid. In kind it is in vivo, Arabidopsis.
Description: as §1

T2 sequence (O49686 whole entry K59R/F108I/S122G): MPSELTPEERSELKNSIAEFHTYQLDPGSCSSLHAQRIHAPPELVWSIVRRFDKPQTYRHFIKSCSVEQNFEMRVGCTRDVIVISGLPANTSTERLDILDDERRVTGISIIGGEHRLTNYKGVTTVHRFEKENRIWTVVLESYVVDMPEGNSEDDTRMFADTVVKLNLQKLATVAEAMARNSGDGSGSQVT
T2 sequence (Q9CAJ0 23-511 partner): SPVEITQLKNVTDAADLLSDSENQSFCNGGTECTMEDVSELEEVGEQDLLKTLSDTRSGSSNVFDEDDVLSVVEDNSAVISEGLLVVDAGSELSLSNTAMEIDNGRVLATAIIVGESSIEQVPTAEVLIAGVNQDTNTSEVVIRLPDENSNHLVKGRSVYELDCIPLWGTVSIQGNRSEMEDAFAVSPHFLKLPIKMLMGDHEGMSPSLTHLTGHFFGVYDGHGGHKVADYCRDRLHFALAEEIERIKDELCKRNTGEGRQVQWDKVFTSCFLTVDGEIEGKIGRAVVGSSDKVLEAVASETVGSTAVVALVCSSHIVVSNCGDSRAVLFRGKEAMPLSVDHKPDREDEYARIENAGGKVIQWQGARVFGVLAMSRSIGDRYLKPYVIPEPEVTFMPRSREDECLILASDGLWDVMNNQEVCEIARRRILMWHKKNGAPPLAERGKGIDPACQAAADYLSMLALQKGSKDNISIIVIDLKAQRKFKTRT
T3 sequence (Q9CAJ0 23-511): as the sequence (Q9CAJ0 23-511 partner) above
T3 sequence (O49686 whole entry K59R/F108A/S122G): as the sequence (O49686 whole entry K59R/F108I/S122G) above, with I108A counted along it
T1 sequence (O49686 whole entry K59R/F108Q/S122G): as the sequence (O49686 whole entry K59R/F108I/S122G) above, with I108Q counted along it
T1 sequence (Q9CAJ0 23-511 partner): as the sequence (Q9CAJ0 23-511 partner) above

Regarding `C#CCOc1ccc(CCNC(=O)C(OCC#C)c2ccc(Cl)cc2)cc1OC` (stereo not drawn) [Mandipropamid, mandipropamid], the Threshold was found to be 10 µM on PYR1 K59R F108Q S122G, 10 µM on PYR1 K59R F108I S122G, 0.01 µM in test [1] and 1 µM on PYR1 K59R F108A S122G. Moreover, the entries for the “transgenic plants whose germination was inhibited by mandipropamid” value in test [2] and in test [3] were 5 of the 15 and 7 of the 16, respectively.
